In US12195439B1, “C1-substituted isopropylamine fused heterocyclic mescaline derivatives” (Enveric Biosciences Canada Inc., priority 2022, dated 2025) one finds Ki, EC50 and inhibition data, which are given here for two molecules.

Experiment [1] addresses T1, 5-HT1A receptor (Homo sapiens, UniProt P08908).
T1 construct: purchased Perkin Elmer 6110501400UA
T1 sequence (P08908 1-422): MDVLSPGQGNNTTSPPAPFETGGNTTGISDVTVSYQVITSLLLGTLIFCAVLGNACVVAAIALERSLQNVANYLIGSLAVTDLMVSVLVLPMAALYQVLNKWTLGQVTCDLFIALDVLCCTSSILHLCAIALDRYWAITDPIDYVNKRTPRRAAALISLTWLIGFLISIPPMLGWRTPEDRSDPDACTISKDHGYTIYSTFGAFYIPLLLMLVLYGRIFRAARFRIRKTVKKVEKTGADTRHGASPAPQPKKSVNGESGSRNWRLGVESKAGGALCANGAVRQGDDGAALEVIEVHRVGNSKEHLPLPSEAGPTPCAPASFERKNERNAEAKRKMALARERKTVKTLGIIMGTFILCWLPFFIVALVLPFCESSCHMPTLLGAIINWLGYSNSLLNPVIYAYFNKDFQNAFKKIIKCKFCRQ
In words: 5-HT1A receptor radioligand competition assay (SPA). Type of experiment: binding. The settings on record: 5-HT1A, Ki, competition with 0.5 nM [3H]8-hydroxy-DPAT, membranes containing 5-HT1A. On the technique in general: Loss of bound radioactivity is the signal in a displacement assay; it reports binding, not function.

The target of the next experiment is T2, 5-HT2A receptor (Homo sapiens, UniProt P28223).
T2 construct: purchased PerkinElmer ES-313-M400UA
The experiment is described as follows: biochemical. Format: binding. Conditions: competition with 1 nM [3H]ketanserin, membranes containing 5-HT2A, SPA.

The target of experiment [2] is T1, 5-HT1A receptor. In words: 5-HT1A receptor functional cellular response (cAMP) assay. Type of experiment: cell-based.
Experiment [3] deals with T1, 5-HT1A receptor. The experiment is described as follows: Eurofins Cerep competition binding assay at 5-HT1A receptor. The settings on record: 10 μM test ligand, [3H]8-OH-DPAT, recombinant receptor from HEK-293 cells; read-out: HT1A, percent of control-specific binding.
Another experiment concerns the target T3, 5-HT2B receptor (Homo sapiens, UniProt P41595).
T3 construct: host or cells: CHO cells (membrane preparation)
In words: Eurofins Cerep competition binding assay at 5-HT2B receptor. The settings on record: 10 μM test ligand, [3H]mesulergine, recombinant receptor from CHO cells; read-out: HT2B, percent of control-specific binding.

In a further experiment the target is T4, 5-HT2C receptor (Homo sapiens, UniProt P28335).
T4 construct: host or cells: HEK-293 cells (membrane preparation)
T4 sequence (P28335 33-458): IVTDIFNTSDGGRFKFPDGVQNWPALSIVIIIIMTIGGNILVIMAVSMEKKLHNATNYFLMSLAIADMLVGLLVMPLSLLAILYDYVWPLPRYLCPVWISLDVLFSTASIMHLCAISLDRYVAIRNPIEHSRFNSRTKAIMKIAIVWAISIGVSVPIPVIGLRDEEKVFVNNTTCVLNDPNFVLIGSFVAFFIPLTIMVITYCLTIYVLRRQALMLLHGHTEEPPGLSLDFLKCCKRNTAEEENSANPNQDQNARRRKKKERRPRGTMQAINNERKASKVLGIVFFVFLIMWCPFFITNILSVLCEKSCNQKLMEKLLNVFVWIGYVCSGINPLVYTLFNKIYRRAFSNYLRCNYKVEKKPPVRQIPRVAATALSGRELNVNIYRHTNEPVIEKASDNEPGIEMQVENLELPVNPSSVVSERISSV
The experiment is described as follows: Eurofins Cerep competition binding assay at 5-HT2C receptor. The settings on record: 10 μM test ligand, [125I](±)DOI, recombinant receptor from HEK-293 cells; read-out: HT2C, percent of control-specific binding.

The next experiment addresses T5, 5-HT7 receptor (Homo sapiens, UniProt P34969).
T5 construct: host or cells: HEK-293 cells (membrane preparation)
The experiment is described as follows: Eurofins Cerep competition binding assay at 5-HT7 receptor. Conditions: 10 μM test ligand, [3H]LSD, recombinant receptor from HEK-293 cells; read-out: HT7, percent of control-specific binding.

In a further experiment the target is T6, alpha2A receptor (Homo sapiens, UniProt P08913).
T6 construct: host or cells: CHO cells (membrane preparation)
T6 sequence (P08913 1-465): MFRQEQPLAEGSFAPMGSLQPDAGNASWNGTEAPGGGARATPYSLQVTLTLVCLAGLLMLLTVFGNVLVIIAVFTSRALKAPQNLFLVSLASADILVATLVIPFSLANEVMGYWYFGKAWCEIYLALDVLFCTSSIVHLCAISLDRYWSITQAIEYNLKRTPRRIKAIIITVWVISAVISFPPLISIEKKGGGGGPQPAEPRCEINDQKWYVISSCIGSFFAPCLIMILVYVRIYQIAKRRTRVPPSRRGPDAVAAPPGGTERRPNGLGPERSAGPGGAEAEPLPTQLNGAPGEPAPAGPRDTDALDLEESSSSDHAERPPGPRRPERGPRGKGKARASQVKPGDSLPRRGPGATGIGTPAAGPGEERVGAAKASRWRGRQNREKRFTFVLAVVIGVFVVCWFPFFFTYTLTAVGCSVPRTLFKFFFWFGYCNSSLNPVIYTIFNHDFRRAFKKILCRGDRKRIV
In words: Eurofins Cerep competition binding assay at alpha2A receptor. Conditions: 10 μM test ligand, [3H]RX 821002, recombinant receptor from CHO cells; read-out: α-2A, percent of control-specific binding.

The target of experiment [4] is T7, serotonin transporter (SERT) (Homo sapiens, UniProt P31645).
T7 construct: host or cells: CHO cells (membrane preparation)
The experiment is described as follows: biochemical. Type of experiment: binding. Conditions: read-out: SERT, percent of control-specific binding.

Experiment [5] addresses T8, dopamine transporter (DAT) (Homo sapiens, UniProt Q01959).
T8 construct: host or cells: CHO cells (membrane preparation)
The experiment is described as follows: Eurofins Cerep competition binding assay at dopamine transporter. The settings on record: read-out: DAT, percent of control-specific binding, 10 μM test ligand, [3H]BTCP, recombinant transporter from CHO cells.

Another experiment has as its target T9, MT1 receptor (Homo sapiens, UniProt P48039).
T9 construct: host or cells: CHO cells (membrane preparation)
In words: Eurofins Cerep competition binding assay at MT1 receptor. Conditions: read-out: MT1, percent of control-specific binding, 10 μM test ligand, [125I]2-iodomelatonin, recombinant receptor from CHO cells.

Experiment [6] has as its target T10, norepinephrine transporter (NET) (Homo sapiens, UniProt P23975).
T10 construct: host or cells: CHO cells (membrane preparation)
In words: Eurofins Cerep competition binding assay at norepinephrine transporter. Conditions: read-out: NET, percent of control-specific binding, 10 μM test ligand, [3H]nisoxetine, recombinant transporter from CHO cells.

T5 sequence (P34969 whole entry): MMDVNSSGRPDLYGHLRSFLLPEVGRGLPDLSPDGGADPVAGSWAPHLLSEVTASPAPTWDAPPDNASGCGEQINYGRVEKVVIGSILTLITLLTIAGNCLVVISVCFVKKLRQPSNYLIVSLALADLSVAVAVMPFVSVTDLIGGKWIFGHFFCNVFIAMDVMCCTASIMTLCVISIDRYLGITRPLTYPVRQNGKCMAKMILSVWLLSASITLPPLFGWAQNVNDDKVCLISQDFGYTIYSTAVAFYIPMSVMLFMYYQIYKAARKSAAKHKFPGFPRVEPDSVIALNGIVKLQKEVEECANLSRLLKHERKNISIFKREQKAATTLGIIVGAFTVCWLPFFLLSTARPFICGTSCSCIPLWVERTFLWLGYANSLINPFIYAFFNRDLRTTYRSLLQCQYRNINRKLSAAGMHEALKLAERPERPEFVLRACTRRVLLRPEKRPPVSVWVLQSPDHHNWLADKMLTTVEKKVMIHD
T7 sequence (P31645 whole entry): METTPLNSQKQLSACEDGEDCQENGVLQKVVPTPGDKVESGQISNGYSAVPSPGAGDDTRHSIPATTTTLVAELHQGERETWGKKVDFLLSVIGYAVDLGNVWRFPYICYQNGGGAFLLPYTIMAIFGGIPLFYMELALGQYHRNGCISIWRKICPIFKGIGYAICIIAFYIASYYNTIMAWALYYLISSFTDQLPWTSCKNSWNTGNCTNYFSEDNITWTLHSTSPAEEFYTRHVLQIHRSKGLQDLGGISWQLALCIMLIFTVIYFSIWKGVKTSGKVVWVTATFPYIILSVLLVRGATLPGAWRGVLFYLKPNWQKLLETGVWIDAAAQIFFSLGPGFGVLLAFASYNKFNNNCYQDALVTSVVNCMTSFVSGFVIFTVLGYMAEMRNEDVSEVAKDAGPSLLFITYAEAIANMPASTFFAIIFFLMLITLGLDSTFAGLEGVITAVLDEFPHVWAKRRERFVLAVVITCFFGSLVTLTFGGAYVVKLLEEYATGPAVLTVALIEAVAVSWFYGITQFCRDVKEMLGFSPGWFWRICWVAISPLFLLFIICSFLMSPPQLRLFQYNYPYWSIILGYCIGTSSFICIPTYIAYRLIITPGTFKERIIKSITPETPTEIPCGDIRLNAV
T2 sequence (P28223 whole entry): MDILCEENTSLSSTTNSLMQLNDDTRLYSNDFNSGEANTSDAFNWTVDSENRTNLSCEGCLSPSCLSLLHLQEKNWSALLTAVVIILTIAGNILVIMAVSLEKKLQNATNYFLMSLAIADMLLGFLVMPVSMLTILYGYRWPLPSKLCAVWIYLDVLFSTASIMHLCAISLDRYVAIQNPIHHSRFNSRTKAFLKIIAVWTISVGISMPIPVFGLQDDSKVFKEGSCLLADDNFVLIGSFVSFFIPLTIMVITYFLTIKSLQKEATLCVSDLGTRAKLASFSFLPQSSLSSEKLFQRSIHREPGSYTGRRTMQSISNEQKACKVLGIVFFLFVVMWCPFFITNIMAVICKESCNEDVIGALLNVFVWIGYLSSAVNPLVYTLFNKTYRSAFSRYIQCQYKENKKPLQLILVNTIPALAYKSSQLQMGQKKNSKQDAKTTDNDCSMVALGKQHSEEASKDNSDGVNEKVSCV
T8 sequence (Q01959 whole entry): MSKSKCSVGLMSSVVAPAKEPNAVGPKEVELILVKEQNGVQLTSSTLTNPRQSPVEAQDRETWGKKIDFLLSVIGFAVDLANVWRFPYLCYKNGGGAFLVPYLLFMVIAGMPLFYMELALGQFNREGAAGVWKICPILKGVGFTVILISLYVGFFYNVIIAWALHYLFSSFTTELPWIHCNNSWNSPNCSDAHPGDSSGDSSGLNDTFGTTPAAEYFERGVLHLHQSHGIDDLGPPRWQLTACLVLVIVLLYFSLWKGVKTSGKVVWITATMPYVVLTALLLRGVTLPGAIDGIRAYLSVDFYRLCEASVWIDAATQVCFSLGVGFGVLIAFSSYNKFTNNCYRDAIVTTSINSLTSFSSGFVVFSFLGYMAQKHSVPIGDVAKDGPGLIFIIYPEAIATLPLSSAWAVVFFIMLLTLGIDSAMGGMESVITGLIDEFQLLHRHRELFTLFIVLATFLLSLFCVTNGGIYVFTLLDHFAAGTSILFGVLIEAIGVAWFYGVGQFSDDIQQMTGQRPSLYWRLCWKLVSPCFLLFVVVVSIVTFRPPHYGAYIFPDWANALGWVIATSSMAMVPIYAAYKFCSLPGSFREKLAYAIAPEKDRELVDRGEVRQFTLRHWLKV
T3 sequence (P41595 whole entry): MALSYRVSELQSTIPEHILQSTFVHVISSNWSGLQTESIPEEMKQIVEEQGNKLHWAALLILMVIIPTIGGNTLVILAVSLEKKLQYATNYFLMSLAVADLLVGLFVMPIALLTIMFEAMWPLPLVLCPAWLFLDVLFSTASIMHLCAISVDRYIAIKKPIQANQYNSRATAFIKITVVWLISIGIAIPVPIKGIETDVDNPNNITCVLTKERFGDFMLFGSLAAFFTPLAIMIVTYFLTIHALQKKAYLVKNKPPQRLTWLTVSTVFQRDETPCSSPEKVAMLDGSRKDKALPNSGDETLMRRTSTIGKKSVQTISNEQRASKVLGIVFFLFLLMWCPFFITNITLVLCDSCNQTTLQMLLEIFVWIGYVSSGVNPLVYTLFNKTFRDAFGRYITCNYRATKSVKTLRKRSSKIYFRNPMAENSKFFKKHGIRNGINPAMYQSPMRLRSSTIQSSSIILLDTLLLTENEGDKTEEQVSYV
T9 sequence (P48039 whole entry): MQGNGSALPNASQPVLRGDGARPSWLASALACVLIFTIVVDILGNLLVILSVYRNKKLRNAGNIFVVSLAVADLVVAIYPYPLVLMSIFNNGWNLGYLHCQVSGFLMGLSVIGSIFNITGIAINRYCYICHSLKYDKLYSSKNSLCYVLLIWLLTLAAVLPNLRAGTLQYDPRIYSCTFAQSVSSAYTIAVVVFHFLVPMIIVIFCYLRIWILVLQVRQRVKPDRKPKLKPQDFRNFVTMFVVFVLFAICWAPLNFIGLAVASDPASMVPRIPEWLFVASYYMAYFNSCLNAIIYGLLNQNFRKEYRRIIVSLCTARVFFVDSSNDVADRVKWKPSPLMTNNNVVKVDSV
T10 sequence (P23975 whole entry): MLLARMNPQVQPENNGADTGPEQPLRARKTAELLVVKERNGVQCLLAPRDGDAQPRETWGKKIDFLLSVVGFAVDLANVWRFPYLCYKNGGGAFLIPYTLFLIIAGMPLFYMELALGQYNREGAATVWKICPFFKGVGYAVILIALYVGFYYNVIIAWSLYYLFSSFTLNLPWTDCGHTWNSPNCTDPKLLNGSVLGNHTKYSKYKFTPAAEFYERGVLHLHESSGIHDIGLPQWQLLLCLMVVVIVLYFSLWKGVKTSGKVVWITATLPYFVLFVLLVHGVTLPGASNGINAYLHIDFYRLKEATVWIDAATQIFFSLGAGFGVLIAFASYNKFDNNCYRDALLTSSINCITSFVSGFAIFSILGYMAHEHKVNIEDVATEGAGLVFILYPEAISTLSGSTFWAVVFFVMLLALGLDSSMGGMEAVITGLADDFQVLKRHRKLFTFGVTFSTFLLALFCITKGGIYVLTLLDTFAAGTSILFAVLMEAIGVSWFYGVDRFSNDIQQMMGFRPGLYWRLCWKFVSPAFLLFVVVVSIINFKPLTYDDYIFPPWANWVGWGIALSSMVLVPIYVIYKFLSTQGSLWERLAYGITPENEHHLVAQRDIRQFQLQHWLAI

The term Ki denotes the equilibrium dissociation constant of an inhibitor or competing ligand from its target. Read a low Ki as tighter binding. In general, EC50 refers to the concentration at which the effect is half-maximal. Lower therefore signals a more potent agent. Consider `CC(C(=O)c1ccc2c(c1)OCO2)N(C)Cc1ccccc1` (racemic) [A(III)], for which the Ki at 5-HT1A receptor [1] was determined as 49 µM; at 5-HT2A receptor, 53 µM. Moreover, the EC50 at 5-HT1A receptor [2] is > 1000 µM. Further, the inhibition at 10 µM at 5-HT1A receptor [3] worked out at 4%; at 5-HT2B receptor it was 32%; on 5-HT2C receptor, 7%; on 5-HT7 receptor it was 0%; on alpha2A receptor, 42%; in experiment [4], 5%. Also, the figures for the inhibition at 10 µM (in [5]; at MT1 receptor; in experiment [6]) were 74%, 77% and 38%, respectively.
Take `N[C@@H](Cc1c[nH]c2ccccc12)C(=O)O` [tryptophan]: the Ki on 5-HT1A receptor [1] and on 5-HT2A receptor was > 1000 µM throughout. Moreover, the inhibition at 10 µM is 6% at 5-HT1A receptor [3]; 0% at 5-HT2B receptor; 25% on 5-HT2C receptor; 11% on 5-HT7 receptor; -4% on alpha2A receptor; 1% in experiment [4]. Besides, the inhibition at 10 µM in experiment [5] was 1%; at MT1 receptor it was -2%; in experiment [6], 1%.
